Source: PMC3758898 (Bioorganic & medicinal chemistry, 2013)

What was measured:
[1] = target: T1, UPPS (Undecaprenyl Pyrophosphate Synthase) (Bacteroides fragilis, UniProt Q5LI17); test: RP-HPLC with fluorescence detection; assay type: biochemical; conditions: IPP 0.2 mM, MgCl2 0.5 mM, KCl 5 mM, 0.1% DDM, HEPES pH 7.4, 37 °C, 1 h
T1 sequence (Q5LI17 1-244): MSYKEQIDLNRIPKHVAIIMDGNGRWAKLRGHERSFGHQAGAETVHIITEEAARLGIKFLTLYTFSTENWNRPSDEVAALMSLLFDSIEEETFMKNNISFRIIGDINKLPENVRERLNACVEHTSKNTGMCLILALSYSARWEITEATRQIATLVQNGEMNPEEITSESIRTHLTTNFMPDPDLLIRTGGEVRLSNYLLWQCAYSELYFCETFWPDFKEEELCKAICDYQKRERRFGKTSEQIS

[2] = target: T1, UPPS (Undecaprenyl Pyrophosphate Synthase); test: RP-HPLC with fluorescence detection, TLC, ESI-MS, 1H-NMR of product; assay type: biochemical; conditions: IPP 0.2 mM, MgCl2 0.5 mM, KCl 5 mM, 0.1% DDM, HEPES pH 7.4, 37 °C

SMILES | RP-HPLC with fluorescence detection [1] | RP-HPLC with fluorescence detection, TLC, ESI-MS, 1H-NMR of product [2]
C/C(=C/COP(=O)(O)OP(=O)(O)O)CC/C=C(\C)CNc1ccccc1C(N)=O [6a, (6Z)-8-(2-amideaniline)-3,7-dimethyl-2,6-octadiene diphosphate] | we observed identical activity with 2AB-N-PP | –
C/C(=C\COP(=O)(O)OP(=O)(O)O)CC/C=C(\C)CNc1ccccc1C(N)=O [6b, (6E)-8-(2-amideaniline)-3,7-dimethyl-2,6-octadiene diphosphate] | – | these results confirmed the formation of the long chain isoprenoid with 2AB-G-PP as the UPPS substrate
